Source: patent US9017719B2, “Injectable drug carrier comprising layered double hydroxide” (Nanohybrid Co., Ltd., priority 2005, dated 2015)

Test: In vivo toxicity test of LDH-MTX hybrid and MTX, intraperitoneal, death rate
Conditions: mouse, ip, Balb/c mice, dosed weekly for three weeks
Method: Like in the in vivo toxicity test of LDH of Example 2, small animal models, Balb/c mice (6-7 weeks old) were purchased and managed in cages (5 mice/cage). MTX was administered intraperitoneally to 10 mice at each concentration of 50, 75, and 100 mg/kg and the LDH-MTX hybrid synthesized in Example 3 was administered intraperitoneally to 10 mice at each concentration of 3, 6, 12.5, 25, 50, 75, and 100 mg/kg. The body weight of each mouse was measured every week for three weeks and a dosage of drug adjusted to the newly measured weight was administered. The body weights of the mice died during the test were excluded from statistical analysis. A death rate with respect to the concentration of MTX is represented by total number of mice survived in FIG. 7a and a death rate with respect to the concentration of the LDH-MTX hybrid is represented by the total number of mice survived in FIG. 7b. […] That is, the lethal dose of the LDH-MTX hybrid was equal to ⅓ of that of MTX.

## CN(Cc1cnc2nc(N)nc(N)c2n1)c1ccc(C(=O)N[C@@H](CCC(=O)O)C(=O)O)cc1 [MTX, methotrexate]
  LD50 at 3 weeks: 75 mg/kg
